Measured values: patent US9386769B2 (HUNAN RESEARCH INSTITUTE OF CHEMICAL INDUSTRY CO., LTD., priority 2011, dated 2016)
Read-outs that look alike come from different tables or passages of the source.

Legend:
Cercospora arachidicola = assay: Fungicidal activity against Cercospora arachidicola; format: cell-based; conditions: 25 mg/L
Description: (§1) Bioassay method: Stock solution of every test compound was prepared in an appropriate solvent such as N,N-dimethylformamide (DMF), and then diluted to the required test concentrations with sterile water containing 0.1% Tween 80; Pipetted 3 mL of test solution to 27 mL of potato dextrose agar (PDA) medium at 45° C. and poured into a Petri dish to prepare a plate after shaking thoroughly; 6 mm of diameter of fungi cake from the edge of 7-day-old […] colony was inoculated on the central of the plate, wherein mycelium facing down, and cultured in the culture tank at 28° C. The diameter of fungi spread was calculated 4 days later using the control group tested with the diluent only. Test was run 4 times. Data were subjected to EXCEL statistical software analysis and the growth inhibition of the tested compound was calculated according to the corresponding control, the activity was rated on the basis of percentage of growth inhibition using the following rating system: A, inhibition (%)>90; B, 90≧inhibition (%)>70; C, 70≧inhibition (%)>50; D, inhibition (%)≦50.

[1] = system: Alternaria solani, Fusarium oxysporum, Marssonina coronaria, Sphaceloma ampelinum, Apple canker, Cercospora arachidicola and Alternaria mali; assay: Fungicidal activities against several pathogens (Example 21), comparison with Procymidone; format: cell-based; conditions: several pathogens of Example 21
Description: as §1

Aphis fabae = assay: Insecticidal activity against Aphis fabae, dipping of horsebean seedlings; format: in vivo; conditions: 24 h
Description: Bioassay method: Stock solution of every test compound was prepared in an appropriate solvent such as N,N-dimethylformamide, and a small amount of Tween 80 was added as emulsification agent, then diluted to the required test concentrations with distilled water, using the control group tested with distilled water only. More than 20 adults of Aphis fabae were transferred to newly unearthed horsebean seedlings and 24 hr later, horsebean seedlings with Aphis fabae were dipped in the test solution for 5 s, then allowed to dry with filter paper, transplanted to the absorbent sponge and covered with a glass tube, then kept in a room for normal cultivation. Each assay contained three replications, and results were averaged. Mortality was assessed 24 hr after the treatment. The activity was rated to A, B, C or D according to the rating system in Example 22.

Fusarium oxysporum = assay: Fungicidal activity against Fusarium oxysporum; format: cell-based; conditions: 25 mg/L
Description: as §1

Alternaria mali = assay: Fungicidal activity against Alternaria mali; format: cell-based; conditions: 25 mg/L
Description: as §1

Alternaria solani = assay: Fungicidal activity against Alternaria solani; format: cell-based; conditions: 25 mg/L
Description: as §1

Sphaceloma ampelinum = assay: Fungicidal activity against Sphaceloma ampelinum; format: cell-based; conditions: 25 mg/L
Description: as §1

Botrytis cinerea = assay: Fungicidal activity against Botrytis cinerea, mycelial growth inhibition on PDA plate; format: cell-based; conditions: Botrytis cinerea; for inhibition at 2.5 µg/mL: 2.5 mg/L; for inhibition at 5 µg/mL: 5 mg/L
Description: as §1
Fungicidal activities against Botrytis cinerea of compounds represented by the general formula (I) were evaluated with the corresponding method in Example 18, and some of the test results are shown in Table 6 to Table 8.

Sclerotinia sclerotiorum = assay: Fungicidal activity against Sclerotinia sclerotiorum, mycelial growth inhibition on PDA plate; format: cell-based; conditions: Sclerotinia sclerotiorum; for inhibition at 2.5 µg/mL: 2.5 mg/L; for inhibition at 5 µg/mL: 5 mg/L
Description: as §1

Alternaria alternata = assay: Fungicidal activity against Alternaria alternata, mycelial growth inhibition on PDA plate; format: cell-based; conditions: Alternaria alternata
Description: as §1
Fungicidal activities against Alternaria alternata of compounds represented by the general formula (I) were evaluated with the corresponding method in Example 18, and some of the test results are shown in Table 9 to Table 10.

Marssonina coronaria = assay: Fungicidal activity against Marssonina coronaria; format: cell-based; conditions: 25 mg/L
Description: as §1

[2] = read-out: activities against Aphis fabae (mortality)
[3] = Table 7, read-out: activities against Botrytis cinerea (growth inhibition)
[4] = Table 8, read-out: activities against Botrytis cinerea (growth inhibition)
[5] = Table 4, read-out: activities against Sclerotinia sclerotiorum (growth inhibition)
[6] = Table 5, read-out: activities against Sclerotinia sclerotiorum (growth inhibition)

## CCN(Cc1cnc(Cl)s1)c1nc(OC)ccc1[N+](=O)[O-] [Compound 05, 6-methoxy-N-((2-chlorothiazole-5-yl)methyl)-N-ethyl-3-nitropyridin-2-amine]
Cercospora arachidicola
  activity against Cercospora arachidicola: 88%
[1]
  fungicidal activity compared with the commercial fungicide Procymidone: better than or equal to that of the commercial fungicide Procymidone
Aphis fabae; read-out: activities against Aphis fabae (mortality rating)
  mortality at 500 µg/mL: > 90%
Aphis fabae; [2]
  mortality at 6.25 µg/mL: 12.7%
  mortality at 25 µg/mL: 46.5%
  mortality at 100 µg/mL: 87.5%
Fusarium oxysporum
  activity against Fusarium oxysporum: 38%
Alternaria mali
  activity against Alternaria mali: 82%
Alternaria solani
  activity against Alternaria solani: 87%
Sphaceloma ampelinum
  activity against Sphaceloma ampelinum: 93%
Botrytis cinerea; 0.1562 mg/L, Table 8, read-out: activities against Botrytis cinerea (growth inhibition)
  inhibition at 0.1562 µg/mL: 78%
Botrytis cinerea; 0.3125 mg/L, Table 8, read-out: activities against Botrytis cinerea (growth inhibition)
  inhibition at 0.3125 µg/mL: 84%
Botrytis cinerea; 0.625 mg/L, Table 8, read-out: activities against Botrytis cinerea (growth inhibition)
  inhibition at 0.625 µg/mL: 88%
Botrytis cinerea; 1.25 mg/L, Table 7, read-out: activities against Botrytis cinerea (growth inhibition)
  inhibition at 1.25 µg/mL: 89%
Botrytis cinerea; 1.255 mg/L, Table 8, read-out: activities against Botrytis cinerea (growth inhibition)
  inhibition at 1.255 µg/mL: 94%
Botrytis cinerea; [3]
  inhibition at 2.5 µg/mL: 92%
  inhibition at 5 µg/mL: 97%
Botrytis cinerea; [4]
  inhibition at 2.5 µg/mL: 98%
  inhibition at 5 µg/mL: 100%
Botrytis cinerea; 10 mg/L, Table 7, read-out: activities against Botrytis cinerea (growth inhibition)
  inhibition at 10 µg/mL: 100%
Botrytis cinerea; 25 mg/L, read-out: activities against Botrytis cinerea (growth inhibition rating)
  inhibition at 25 µg/mL: > 90%
Sclerotinia sclerotiorum; 0.1562 mg/L, Table 5, read-out: activities against Sclerotinia sclerotiorum (growth inhibition)
  inhibition at 0.1562 µg/mL: 63%
Sclerotinia sclerotiorum; 0.3125 mg/L, Table 5, read-out: activities against Sclerotinia sclerotiorum (growth inhibition)
  inhibition at 0.3125 µg/mL: 63%
Sclerotinia sclerotiorum; 0.625 mg/L, Table 5, read-out: activities against Sclerotinia sclerotiorum (growth inhibition)
  inhibition at 0.625 µg/mL: 68%
Sclerotinia sclerotiorum; 1.25 mg/L, Table 4, read-out: activities against Sclerotinia sclerotiorum (growth inhibition)
  inhibition at 1.25 µg/mL: 95%
Sclerotinia sclerotiorum; 1.255 mg/L, Table 5, read-out: activities against Sclerotinia sclerotiorum (growth inhibition)
  inhibition at 1.255 µg/mL: 73%
Sclerotinia sclerotiorum; [5]
  inhibition at 2.5 µg/mL: 99%
  inhibition at 5 µg/mL: 100%
Sclerotinia sclerotiorum; [6]
  inhibition at 2.5 µg/mL: 90%
  inhibition at 5 µg/mL: 96%
Sclerotinia sclerotiorum; 10 mg/L, Table 4, read-out: activities against Sclerotinia sclerotiorum (growth inhibition)
  inhibition at 10 µg/mL: 100%
Sclerotinia sclerotiorum; 25 mg/L, read-out: activities against Sclerotinia sclerotiorum (growth inhibition rating)
  inhibition at 25 µg/mL: > 90%
Alternaria alternata; 2.5 mg/L, read-out: activities against Alternaria alternata (growth inhibition)
  inhibition at 2.5 µg/mL: 45%
Alternaria alternata; 5 mg/L, read-out: activities against Alternaria alternata (growth inhibition)
  inhibition at 5 µg/mL: 75%
Alternaria alternata; 10 mg/L, read-out: activities against Alternaria alternata (growth inhibition)
  inhibition at 10 µg/mL: 81%
Alternaria alternata; 25 mg/L, read-out: activities against Alternaria alternata (growth inhibition rating)
  inhibition at 25 µg/mL: 70 to 90%
Marssonina coronaria
  activity against Marssonina coronaria: 78%
